The subject of experiment [1] is Streptococcus uberis. In words: S. uberis challenge study, Example 4. It counts as in vivo, cattle.
The test system of experiment [2] is E. coli challenge strain. As to the kind of experiment: Antibacterial activity of 2 mg peptide in varying milk concentrations, 2-minute pre-incubation. The format is cell-based. The protocol:
In a follow up assay to better understand the impact of milk protein binding on antibacterial activity that may be seen in vivo, a ratio of peptide to milk protein was estimated. In this assay varying concentrations of milk in bacterial growth medium was incubated with 2 mg of peptide. Two minutes after adding peptide to the tube, 500 colony forming units (CFU)/mL of the E. coli challenge strain was added. The timing was purposeful for understanding how quickly the peptide can be completely bound. The low inoculum was also chosen intentionally to more closely replicate the dose provided in the in vivo challenge model, thereby providing a worst-case scenario on exposure to free peptide. […] The quantity of milk protein was enough to bind 2 mg of CATH2 peptide. The bacterial growth was evaluated at 1, 2, 4, 6, and 24 hours post inoculation. […] The lower level of detection was 10 CFU/mL and the upper level of quantification measured for the purposes of this assay was set to 1.5×10^5 CFU/mL.

Experiment [3] can be described thus: Transcriptomics after treatment alone in the lactating cow model. It counts as in vivo. Particulars: 100 mg/10 mL, 12 hour post administration, lactating cows. An excerpt:
Prior to challenge in the lactating cow model, there is a consistent treatment effect of CATH2 alone indicating a modulation of the animal immune response. In the lactating cow model, these shifts lead to an enhanced response in clearance of the E. coli and resolution of inflammation as compared to untreated controls.

In experiment [4] the test system is bovine peripheral blood mononuclear cells (PBMCs). In words: Cytokine production in bovine PBMCs after TLR 4 agonist stimulation. It counts as cell-based. Particulars: LPS or MPLA stimulation. The text has this: Chicken CATH2 is a host defense peptide that is naturally expressed in chicken heterophils and several tissues. […] LPS and MPLA serve as potent Toll-like Receptor 4 (TLR 4) agonists in this assay and induce high levels of proinflammatory cytokines such as interleukin 6 (IL-6) and tumor necrosis factor alpha (TNFα).

In experiment [5] the test system is Escherichia coli. As to the kind of experiment: Lactating cow E. coli mastitis challenge model, Example 1. It counts as in vivo, Holstein Crossbred Cattle. The protocol:
A frozen stock of E. coli was used to prepare a suspension of approximately 500 colony forming units/10 mL using standard site procedures. Standard plate counts were conducted on the challenge suspension immediately after preparation and after all animals were challenged. Details of the challenge inoculum preparation including concentration (CFU/10 mL) for the pre- and post-challenge preparation were documented and confirmed to be in range. Locally sourced healthy adult female Holstein Crossbred Cattle in the first, second, or third lactation were enrolled into the studies. Animals challenged with E. coli were susceptible to E. coli as determined by vaccination records and low serum titer to E. coli. Animals enrolled were confirmed to be between 14 and 35 days post-calving at enrollment. […] Following challenge quarters bacteriologically positive for E. coli were regarded as infected. Clinical mastitis was defined as a challenged quarter having a clinical score of at least 1 for either milk appearance or udder evaluation and an isolation of E. coli from the challenged quarter. Subclinical mastitis was defined as isolation of E. coli from the challenged quarter and elevated SSC in the absence of abnormal milk or udder score. This isolate elicits a moderate case of E. coli mastitis with body temperature increase in the first 24 hours post challenge and consistent local signs on udder appearance and milk quality.
In this study, animals were treated with 50 mg/10 mL at 12-hour intervals starting 12 hours prior to E. coli challenge. A total of 4 doses were administered by intramammary infusion. Dose administration concluded 24 hours after challenge. The objective of the study was to evaluate the potential for CATH2 to reduce the severity of clinical mastitis by modulation of the host immune response. The dose regimen was designed to ensure sufficient exposure in the absence of understanding the duration of the immunological effect driven by the peptide in cattle.
The experimental design was a randomized design with a one-way treatment structure replicated in 3 batches. […] Milk samples were collected for transcriptomic analysis and cytokine profiles in the whey at 12 hours post-challenge. Differential quantitative milk leukocyte counts were collected for 7 days post challenge.
One hundred fifty bovine milk samples were obtained in 3 separate cohorts and processed to whey. The whey samples were analyzed for total protein levels and the levels of 8 total cytokines using the developed MSD whey U-Plex method.

The test system of experiment [6] is S. aureus. As to the kind of experiment: S. aureus challenge study, treatment at onset of clinical mastitis, Example 3. The format is in vivo, Holstein or Holstein Crossbred cattle. The note with it: 6 doses at 50 mg/10 mL intramammary. The procedure: Bovine mastitis specific bacterial pathogens were used to experimentally infect periparturient cows and first lactation heifer Holstein or Holstein Crossbred cattle to test the efficacy of the CATH2 peptide in the treatment and prevention of clinical mastitis.
A frozen stock of S. aureus was used to prepare a suspension of approximately 600 colony forming units in 5 mL. Standard plate counts were conducted on the challenge suspension immediately after preparation and after all animals were challenged. Details of each challenge inoculum preparation including concentration (CFU/5 mL) for pre- and post-challenge preparation were documented and confirmed to be in range.
Quarters that were bacteriologically positive for S. aureus were regarded as infected. Clinical mastitis was defined as a challenged quarter having a clinical score of at least 1 for either milk appearance or udder evaluation with an isolation of S. aureus (≥100 cfu/mL) from the quarter within 2 days of clinical signs. Sub-clinical chronic mastitis was defined as isolation of S. aureus (≥100 cfu/mL) from a challenged quarter and elevated SCC (>200,000 cells/mL) in the absence of abnormal milk or udder score.
All treatments were administered in accordance with the randomization provided by the biometrician into the challenged quarter (left front) of the udder. Treatments were administered upon onset of clinical mastitis. In this model, onset is approximately 1 to 3 days post-challenge. Upon confirmation of clinical mastitis, treatments were administered at the next milking. Treatments were administered with a 10 mL syringe via intramammary infusion and recorded.
Each animal with clinical mastitis received a total of 6 doses at 50 mg/10 mL by intramammary infusion administered twice daily for 3 consecutive days.

Experiment [7] deals with bacteria. In words: Modified minimal bactericidal concentration assay in varying concentrations of milk. It counts as cell-based. The note with it: as little as 10% whole and skim milk. An excerpt: The CATH2 peptide has antibacterial activity where it causes membrane disruption and lysis of the bacterial cell. The peptide also has cytotoxic effects on eukaryotic cells at high concentrations due the high positive charge, +8, and its ability to integrate in the cell membrane, resulting in membrane disruption. To further understand the behavior of the peptide in the context of the mammary gland, the inventors investigated the antibacterial activity and cytotoxicity of the peptide in the presence of milk. […] This finding led the inventors to investigate the impact of milk protein binding on peptide activity.

“And” between values parts separate entries of the source, which are not always exact repeats. Identical values can stand only once. “Also recorded” adds a separate entry of the source.

As to “RFGRFLRKIRRFRPKVTITIQ [CATH2, truncated 1-21 amino acid L-form of chicken cathelicidin 2 peptide]”, in experiment [1] (50 mg/10 mL, 2 doses prior to challenge or 4 doses spanning challenge, FIG. 21), the “animals meeting criteria for removal from study (Kaplan Meier analysis)” value is “reduction in the number of animals meeting criteria for removal of study”. Besides, the “incidence of clinical mastitis” value in experiment [1] (50 mg/10 mL, both regimens, FIG. 22) is “reduced incidence of clinical mastitis”. Also, in experiment [1] (4 doses at -12, 0, 12, 24 hours), the “progression of clinical mastitis, 4 dose regimen vs 2 dose regimen” value was “greater capacity to inhibit the progression of clinical mastitis”. Also, the “antibacterial activity in 10% and 20% milk” value in experiment [2] is listed as “some inhibition of bacterial growth”. For the same sequence, the “antibacterial activity in 30% whole milk” value in experiment [2] (2-minute incubation, 500 CFU/mL E. coli) is reported as “completely block the antibacterial activity”. Further, the “antibacterial activity in bacterial medium alone” value in experiment [2] (E. coli below level of detection (10 CFU/mL) at 1, 2, 4, 6, 24 h) was “completely bactericidal”. The “gene expression in milk” value in experiment [3] was “increased expression of: CCL24, CXCL2, IL1RAP, CXCR1, and CXCR2”. In experiment [4], the “proinflammatory cytokines (IL-6, TNFα) in PBMCs” value is listed as “effectively inhibits these proinflammatory cytokines”. Moreover, the “animals showing signs of clinical mastitis” value in experiment [5] (50 mg/10 mL intramammary, 4 doses at -12, 0, 12, 24 h, saline 95.65%) worked out at 8.70%. Further, the “animals never positive for intramammary infection” value in experiment [5] (50 mg/10 mL intramammary, 4 doses, 20 of 23 animals) is 86.96% and 87.0%. Besides, the “animals that never met criteria for clinical mastitis” value in experiment [5] (50 mg/10 mL intramammary, 4 doses, 21 out of 23 animals) worked out at 91.3%. In addition, the “animals qualifying for subclinical mastitis” value in experiment [5] (14-day study, saline 20 of 23) is given as “None”. For the same sequence, the “somatic cell count (SCC)” value in experiment [5] (6 hours post challenge, FIG. 6) is recorded as “notable increase in the SCC”. Besides, the “milk whey cytokines (IL-1B, IL-6, IL-8/CXCL8, IL-10, TNFα)” value in experiment [5] (12 hr post-challenge, vs saline) is on record as “significantly lower levels of key inflammatory cytokines; also recorded: reduction in peak cytokine responses”. Besides, the milk yield result in experiment [5] (AfiLab in-line system, each milking, FIG. 7) is on record as “maintained high milk yields”. In addition, the “BSA levels in the milk vs Saline control” value in experiment [5] (all time points after Day 0 at 6 hours post-challenge, FIG. 8) is given as “statistically significantly reduced BSA levels”. In addition, the “time of SCC return to baseline” value in experiment [5] (bovine, in vivo) is at most 24 hours post challenge. For the same sequence, the “bacterial load in the milk” value in experiment [5] (first 6 days, FIG. 4) is recorded as “significant inhibition of E. coli ability to establish infection”. Moreover, the “BSA return to baseline levels” value in experiment [5] (milk from challenged quarter) is given as at most 3 Study Day. In addition, the “animals not showing an increase in body temperature” value in experiment [5] (rectal temperature, 22 of 23 animals) is 95.7%. Moreover, in experiment [6], the “animals showing a positive response to treatment” value amounted to 55.6%; the severity of disease entry is “reduction in bacterial counts and reduced somatic cell counts”. Besides, the “animals achieving clinical cure” value in experiment [6] (twice daily for 3 days) was 33.3%. For the same sequence, the “peptide antibacterial activity in the presence of milk” value in experiment [7] is “completely inhibited”.

(Values after patent US20240342242A1, “COMPOSITIONS AND METHODS FOR TREATING MASTITIS” (Zoetis Services LLC, priority 2021, published 2024).)
